Results on seven compounds are retold here after patent publication US6686394B1, “Aryl-chloro-ethyl ureas” (Sovar, Societe en Commandite, priority 1999, dated 2004).

Each structure is given as a SMILES string.

The first assay deals with CHO. Nature of the assay: Cytotoxicity assay G50, MTT or resazurin (Example 29). Conditions: Cricetulus griseus; cell line CHO. The class given is cell-based, Chinese Hamster. The protocol:
(§1) The MTT assay was as described above in Example 1. The Resazurin assay was performed as follows:
(§2) Aspirate the supernatant (cell suspension: centrifuge first)
(§3) Add 100 μL NaCl 0.9% (saline)
(§4) Add 50 μL RZ (resazurin 125 μg/ml/PBS: RPMI without FBS; 1:4)
(§5) Collect fluorescence data at different time.
For orientation: Alamar Blue is a resazurin reagent that responds to reducing activity.
By IC50 is commonly meant the midpoint of a concentration-inhibition curve. As to `CCCCCCCc1ccc(NC(=O)N[C@H](C)CCl)cc1` [Example 21], the midpoint of inhibition, the IC50, lay at 3.46 µM. This lies in the single-digit micromolar range.

In turn, `CCCCCCCc1ccc(NC(=O)N[C@@H](C)CCl)cc1` [Example 22] gave an IC50 of 3.8 µM.

`CCCCCCCc1ccc(NC(=O)N[C@@H](CC)CCl)cc1` [Example 23] yielded an IC50 of 4.2 µM.

Regarding `CCCCCCCc1ccc(NC(=O)N[C@H](CC)CCl)cc1` [Example 24], the IC50 amounted to 3.14 µM.

As to `CCCCCCOc1ccc(NC(=O)N[C@H](C)CCl)cc1` [Example 26], the IC50 came out at 2.63 µM. This IC50 and that of the compound before are within 1.5-fold of each other.

Take `CCCCCCOc1ccc(NC(=O)N[C@@H](C)CCl)cc1` [Example 27]: the IC50 is 3.66 µM.

In turn, `CCCCCCOc1ccc(NC(=O)N[C@@H](CC)CCl)cc1` [Example 28] had an IC50 of 3.28 µM.

For a further assay, the system named is L1210. The assay is described as above. The class given is cell-based. Conditions: Mus musculus; cell line L1210. The protocol: as §1, §2, §3, §4, §5
Take `CCCCCCCc1ccc(NC(=O)N[C@H](C)CCl)cc1` [Example 21]: the IC50 worked out at 2.42 µM.

For `CCCCCCCc1ccc(NC(=O)N[C@@H](C)CCl)cc1` [Example 22], the IC50 amounted to 7.48 µM. Compared with the last compound, the IC50 is about 3.1-fold higher.

The compound `CCCCCCCc1ccc(NC(=O)N[C@@H](CC)CCl)cc1` [Example 23] showed an IC50 of 5.67 µM. This IC50 and that of the compound before are within 1.5-fold of each other.

For the compound `CCCCCCCc1ccc(NC(=O)N[C@H](CC)CCl)cc1` [Example 24], inhibition was half-maximal at 4.04 µM (IC50).

As to `CCCCCCOc1ccc(NC(=O)N[C@H](C)CCl)cc1` [Example 26], the IC50 was 6.21 µM.

`CCCCCCOc1ccc(NC(=O)N[C@@H](C)CCl)cc1` [Example 27]: the IC50 turned out to be 8.2 µM. The IC50 values of the last two compounds are within 1.5-fold of each other.

`CCCCCCOc1ccc(NC(=O)N[C@@H](CC)CCl)cc1` [Example 28] came in with an IC50 of 7.42 µM.

The subject of another assay is MCF-7. Described as above. The class given is cell-based. Conditions: Homo sapiens, MCF7; cell line MCF-7. The method, then:
as §1, §2, §3, §4, §5
`CCCCCCCc1ccc(NC(=O)N[C@H](C)CCl)cc1` [Example 21]: half-maximal inhibition (IC50) required 3.31 µM.

`CCCCCCCc1ccc(NC(=O)N[C@@H](C)CCl)cc1` [Example 22] had an IC50 of 5.56 µM.

Consider `CCCCCCCc1ccc(NC(=O)N[C@@H](CC)CCl)cc1` [Example 23], for which half-maximal inhibition (IC50) required 4.2 µM.

`CCCCCCCc1ccc(NC(=O)N[C@H](CC)CCl)cc1` [Example 24] came in with an IC50 of 3.78 µM.

As to `CCCCCCOc1ccc(NC(=O)N[C@H](C)CCl)cc1` [Example 26], the IC50 worked out at 8.3 µM.

In turn, `CCCCCCOc1ccc(NC(=O)N[C@@H](C)CCl)cc1` [Example 27] showed an IC50 of 7.99 µM.

For the compound `CCCCCCOc1ccc(NC(=O)N[C@@H](CC)CCl)cc1` [Example 28], the IC50 was determined as 10.4 µM.

A further assay concerns T24. The assay is described as above. The assay is classed as cell-based. Conditions: Homo sapiens, T-24; cell line T24. The protocol:
as §1, §2, §3, §4, §5
Turning to `CCCCCCCc1ccc(NC(=O)N[C@H](C)CCl)cc1` [Example 21], the IC50 was 2.18 µM.

Compound `CCCCCCCc1ccc(NC(=O)N[C@@H](C)CCl)cc1` [Example 22] displayed an IC50 of 6.15 µM. Against the preceding compound, the IC50 is about 2.8-fold higher.

For `CCCCCCCc1ccc(NC(=O)N[C@@H](CC)CCl)cc1` [Example 23], the IC50 is 3.93 µM.

`CCCCCCCc1ccc(NC(=O)N[C@H](CC)CCl)cc1` [Example 24]: it took 3.61 µM to reach half-maximal inhibition (IC50). The IC50 values of the last two compounds are within 1.5-fold of each other.

Turning to `CCCCCCOc1ccc(NC(=O)N[C@H](C)CCl)cc1` [Example 26], the IC50 stood at 7.14 µM.

Turning to `CCCCCCOc1ccc(NC(=O)N[C@@H](C)CCl)cc1` [Example 27], the half-inhibitory concentration (IC50) worked out at 9.93 µM.

`CCCCCCOc1ccc(NC(=O)N[C@@H](CC)CCl)cc1` [Example 28] displayed an IC50 of 7.16 µM.

A further assay relates to K562. Described as above. The assay is classed as cell-based. Conditions: Homo sapiens; cell line K562. The protocol: as §1, §2, §3, §4, §5
In the case of `CCCCCCCc1ccc(NC(=O)N[C@H](C)CCl)cc1` [Example 21], it took 2.41 µM to reach half-maximal inhibition (IC50).

On to `CCCCCCCc1ccc(NC(=O)N[C@@H](C)CCl)cc1` [Example 22], for which half-maximal inhibition (IC50) was put at 6.96 µM.

In the case of `CCCCCCCc1ccc(NC(=O)N[C@@H](CC)CCl)cc1` [Example 23], 3.59 µM corresponded to half-maximal inhibition (IC50).

As for `CCCCCCCc1ccc(NC(=O)N[C@H](CC)CCl)cc1` [Example 24], the IC50 is 2.9 µM.

As to `CCCCCCOc1ccc(NC(=O)N[C@H](C)CCl)cc1` [Example 26], half-maximal inhibition (IC50) required 2.68 µM. The IC50 values of the last two compounds are within 1.5-fold of each other.

On to `CCCCCCOc1ccc(NC(=O)N[C@@H](C)CCl)cc1` [Example 27], for which it took 7.48 µM to reach half-maximal inhibition (IC50).

Compound `CCCCCCOc1ccc(NC(=O)N[C@@H](CC)CCl)cc1` [Example 28] came in with an IC50 of 3.88 µM.

For a further assay, the system named is Caco-2. The description is as above. The conditions noted are these: Homo sapiens; cell line Caco-2. The class given is cell-based. The method, then: (§6) Cell culture. Tumor cell lines (B16-F0, Caco-2, DU-145, HT-29, MDA-MB-231 and other cell lines described so far in the patent application) were obtained from the American Type Culture Collection (ATCC HTB-26; Bethesda, Md.). Cells were grown in RPMI 1640 medium supplemented with 10% fetal bovine serum (Hyclone, Road Logan, Utah) and were cultured in a humidified atmosphere at 37° C. in 5% CO2.
(§7) Drugs: All drugs were dissolved in DMSO and the final concentration of DMSO in the culture medium was maintained at 0.5% (v/v).
(§8) Cytotoxiciy assays. At day-1, tumor cells in suspension in 100 μl were plated in microtiter plates (96 wells). On day-0, tumor cells were treated by addition of escalating concentrations of the drug (100 μl solution). On that day, the number of living cells was determined in wells that were untreated. The number of living cells is determined using either MTT or resazurin assays. Growth inhibition activity of these compounds was expressed as the concentration of CAU inhibiting cell growth by 50% G50 in the following table
as §1, §2, §3, §4, §5
Turning to `CCCCCCCc1ccc(NC(=O)N[C@H](C)CCl)cc1` [Example 21], the IC50 was 4.94 µM.

The compound `CCCCCCCc1ccc(NC(=O)N[C@@H](C)CCl)cc1` [Example 22] returned an IC50 of 7.61 µM. Compared with the last compound, the IC50 is about 1.5-fold higher.

Regarding `CCCCCCCc1ccc(NC(=O)N[C@@H](CC)CCl)cc1` [Example 23], the IC50 is 6.32 µM.

Turning to `CCCCCCCc1ccc(NC(=O)N[C@H](CC)CCl)cc1` [Example 24], the IC50 was found to be 4.85 µM. This IC50 and that of the compound before are within 1.5-fold of each other.

`CCCCCCOc1ccc(NC(=O)N[C@H](C)CCl)cc1` [Example 26] registered an IC50 of 8.57 µM.

`CCCCCCOc1ccc(NC(=O)N[C@@H](C)CCl)cc1` [Example 27] had an IC50 of 7.98 µM. This IC50 and that of the compound before are within 1.5-fold of each other.

For the compound `CCCCCCOc1ccc(NC(=O)N[C@@H](CC)CCl)cc1` [Example 28], it took 9.5 µM to reach half-maximal inhibition (IC50).

The test system of a further assay is B16-F0. The description is as above. The class given is cell-based. Conditions: Mus musculus, B16F0; cell line B16-F0. The method, then:
as §6, §7, §8, §1, §2, §3, §4, §5
`CCCCCCCc1ccc(NC(=O)N[C@H](C)CCl)cc1` [Example 21] had an IC50 of 3.79 µM.

Take `CCCCCCCc1ccc(NC(=O)N[C@@H](C)CCl)cc1` [Example 22]: the IC50 amounted to 6.6 µM.

`CCCCCCCc1ccc(NC(=O)N[C@@H](CC)CCl)cc1` [Example 23] yielded an IC50 of 4.77 µM.

In the case of `CCCCCCCc1ccc(NC(=O)N[C@H](CC)CCl)cc1` [Example 24], inhibition was half-maximal at 3.74 µM (IC50). The IC50 values of the last two compounds are within 1.5-fold of each other.

For the compound `CCCCCCOc1ccc(NC(=O)N[C@H](C)CCl)cc1` [Example 26], the IC50 stood at 6.38 µM.

The compound `CCCCCCOc1ccc(NC(=O)N[C@@H](C)CCl)cc1` [Example 27] came in with an IC50 of 8.45 µM.

For `CCCCCCOc1ccc(NC(=O)N[C@@H](CC)CCl)cc1` [Example 28], the IC50 was 8.26 µM.

The test system of a further assay is HT-29. The assay is described as above. The class given is cell-based. The conditions noted are these: Homo sapiens; cell line HT-29. The method, then: as §6, §7, §8, §1, §2, §3, §4, §5
`CCCCCCCc1ccc(NC(=O)N[C@H](C)CCl)cc1` [Example 21] came in with an IC50 of 2.17 µM.

In turn, `CCCCCCCc1ccc(NC(=O)N[C@@H](C)CCl)cc1` [Example 22] had an IC50 of 7.69 µM.

Turning to `CCCCCCCc1ccc(NC(=O)N[C@@H](CC)CCl)cc1` [Example 23], the midpoint of inhibition, the IC50, lay at 5.01 µM.

`CCCCCCCc1ccc(NC(=O)N[C@H](CC)CCl)cc1` [Example 24] returned an IC50 of 2.94 µM.

`CCCCCCOc1ccc(NC(=O)N[C@H](C)CCl)cc1` [Example 26] showed an IC50 of 9.55 µM.

`CCCCCCOc1ccc(NC(=O)N[C@@H](C)CCl)cc1` [Example 27]: the IC50 worked out at 10.5 µM.

Compound `CCCCCCOc1ccc(NC(=O)N[C@@H](CC)CCl)cc1` [Example 28] had an IC50 of 8.12 µM.

The next assay relates to DU-145. Described as above. The class given is cell-based. Conditions: Homo sapiens; cell line DU-145. The method, then: as §6, §7, §8, §1, §2, §3, §4, §5
Consider `CCCCCCCc1ccc(NC(=O)N[C@H](C)CCl)cc1` [Example 21], for which 3.63 µM corresponded to half-maximal inhibition (IC50).

`CCCCCCCc1ccc(NC(=O)N[C@@H](C)CCl)cc1` [Example 22] yielded an IC50 of 7.46 µM.

In turn, `CCCCCCCc1ccc(NC(=O)N[C@@H](CC)CCl)cc1` [Example 23] registered an IC50 of 4.89 µM.

With `CCCCCCCc1ccc(NC(=O)N[C@H](CC)CCl)cc1` [Example 24], the midpoint of inhibition, the IC50, lay at 4.02 µM.

In turn, `CCCCCCOc1ccc(NC(=O)N[C@H](C)CCl)cc1` [Example 26] registered an IC50 of 13.2 µM.

As to `CCCCCCOc1ccc(NC(=O)N[C@@H](C)CCl)cc1` [Example 27], the IC50 turned out to be 12.6 µM.

Consider `CCCCCCOc1ccc(NC(=O)N[C@@H](CC)CCl)cc1` [Example 28], for which the 50% inhibitory concentration (IC50) is 9.46 µM.

The next assay deals with MDA-MB-231. The description is as above. The assay is classed as cell-based. The conditions noted are these: Homo sapiens; cell line MDA-MB-231. The protocol: as §6, §7, §8, §1, §2, §3, §4, §5
For `CCCCCCCc1ccc(NC(=O)N[C@H](C)CCl)cc1` [Example 21], half-maximal inhibition (IC50) was put at 4.64 µM.

In the case of `CCCCCCCc1ccc(NC(=O)N[C@@H](C)CCl)cc1` [Example 22], the IC50 amounted to 8.33 µM. Against the preceding compound, the IC50 is about 1.8-fold higher.

On to `CCCCCCCc1ccc(NC(=O)N[C@@H](CC)CCl)cc1` [Example 23], for which the midpoint of inhibition, the IC50, lay at 6.12 µM.

Compound `CCCCCCCc1ccc(NC(=O)N[C@H](CC)CCl)cc1` [Example 24] gave a concentration for half-maximal inhibition (IC50) of 5.17 µM.

In turn, `CCCCCCOc1ccc(NC(=O)N[C@H](C)CCl)cc1` [Example 26] showed an IC50 of 10.5 µM.

On to `CCCCCCOc1ccc(NC(=O)N[C@@H](C)CCl)cc1` [Example 27], for which the IC50 worked out at 9.08 µM.

`CCCCCCOc1ccc(NC(=O)N[C@@H](CC)CCl)cc1` [Example 28]: the IC50 turned out to be 8.75 µM.
